Assay results taken from the CheMixHub drug solubility set.

Experiment: xn = mol fraction of the nth substance listed, in the solute-free solvent

CC(C)OC(=O)C(C)NP(=O)(OCC1OC(n2ccc(=O)[nH]c2=O)C(C)(F)C1O)Oc1ccccc1 (stereo unspecified) + CCO + O
solubility (g/100 g solution)
Conditions | 278.15 K | 283.15 K | 288.15 K | 293.15 K | 298.15 K | 303.15 K | 308.15 K | 313.15 K | 318.15 K
x2 = 0.04165 | 0.327 | 0.484 | 0.653 | 0.882 | 1.17 | 1.57 | 2.08 | 2.71 | 3.42
x2 = 0.08908 | 1.42 | 2.02 | 2.65 | 3.46 | 4.44 | 5.7 | 7.2 | 9.04 | 10.9
x2 = 0.1436 | 3.58 | 4.78 | 6.12 | 7.78 | 9.72 | 12.1 | 14.7 | 17.7 | 21
x2 = 0.2068 | 5.74 | 7.67 | 9.66 | 12 | 14.8 | 17.8 | 21.3 | 25.1 | 29
x2 = 0.2812 | 7.44 | 9.76 | 12.2 | 14.9 | 18.1 | 21.6 | 25.5 | 29.7 | 33.9
x2 = 0.3698 | 9.07 | 11.6 | 14.4 | 17.3 | 20.7 | 24.9 | 29 | 33.2 | 37.7
x2 = 0.4772 | 11 | 13.7 | 16.6 | 20.2 | 24.2 | 28.3 | 32.5 | 36.8 | 41.3
x2 = 0.6101 | 13.9 | 17 | 20.8 | 24.3 | 28.5 | 32.3 | 37.2 | 41.6 | 46.3
x2 = 0.7788 | 17.6 | 20.9 | 24.6 | 28.8 | 33.3 | 37.8 | 42.4 | 47 | 51.6

S=c1[nH]ncs1 + CCO + O
solubility (g/100 g solution)
Conditions | 278.15 K | 283.15 K | 288.15 K | 293.15 K | 298.15 K | 303.15 K | 308.15 K | 313.15 K | 318.15 K | 323.15 K
x2 = 0.1 | 0.653 | 0.91 | 1.26 | 1.71 | 2.24 | 2.97 | 3.91 | 5.01 | 6.49 | 7.94
x2 = 0.2 | 1.93 | 2.6 | 3.27 | 4.16 | 5.3 | 6.67 | 8.34 | 10.5 | 12.8 | 15.2
x2 = 0.3 | 3.54 | 4.46 | 5.7 | 7.08 | 8.6 | 10.7 | 12.9 | 15.5 | 18.5 | 21.9
x2 = 0.4 | 5.21 | 6.58 | 8.06 | 9.53 | 11.3 | 13.6 | 16.1 | 18.9 | 22.3 | 26
x2 = 0.5 | 6.64 | 8 | 9.61 | 11.3 | 13.3 | 15.6 | 18.1 | 21.1 | 24.5 | 28.1
x2 = 0.6 | 7.53 | 8.92 | 10.7 | 12.4 | 14.4 | 16.5 | 19.2 | 22.3 | 25.4 | 28.5
x2 = 0.7 | 8.26 | 9.5 | 11.2 | 13.1 | 15 | 17.1 | 19.5 | 22.4 | 25.4 | 28
x2 = 0.8 | 8.41 | 10.1 | 11.6 | 13.3 | 15 | 17.2 | 19.5 | 22.1 | 25 | 27.6
x2 = 0.9 | 8.73 | 10.2 | 11.8 | 13.3 | 15.1 | 16.9 | 19.1 | 21.6 | 23.9 | 26.6
